Experimental data from PubChem BioAssay AID1963963 (Molecular Pharmacology Branch, DTP, NCI, 2024).

Test system: 958667-338-R-J2-PDC tumor spheroids viability
Experiment: Anticancer human tumor 958667-338-R-J2-PDC patient-derived colon adenocarcinoma cell line growth inhibition [PI3K]
Settings: spheroids with HUVEC and MSC; for IC50: curve of first compound; for viability, T/C: stronger effect = lower value
How it was run: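 Stroma-containing spheroids: tumor line, pooled-donor HUVEC, hMSC. Treatments: targeted agents with PI3K inhibitors. Dosing: clinically relevant, half-log spacing, 10 microM ceiling without known Cmax. Read-out: cell viability.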
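Note: spheroids exposed to compounds for seven days before readout.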

IC50 (second compound 0.0316 µM): 365 nM | IC50 (second compound 0.1 µM): 261 nM | IC50 (second compound 0.316 µM): 363 nM | IC50 (second compound 1 µM): 280 nM | IC50 (second compound 3.16 µM): 210 nM | IC50 (second compound 10 µM): 90.4 nM
SMILES: Cn1cnc2c(F)c(Nc3ccc(Br)cc3Cl)c(C(=O)NOCCO)cc21 + CC(Nc1ncnc2nc[nH]c12)c1cc2cccc(Cl)c2c(=O)n1-c1ccccc1
viability, T/C (second compound 0.0316 µM, first compound 0.00949 µM): 89.8% | viability, T/C (second compound 0.0316 µM, first compound 0.03 µM): 80.5% | viability, T/C (second compound 0.0316 µM, first compound 0.0949 µM): 71% | viability, T/C (second compound 0.0316 µM, first compound 0.3 µM): 52.2% | viability, T/C (second compound 0.0316 µM, first compound 0.949 µM): 35.5% | viability, T/C (second compound 0.0316 µM, first compound 3 µM): 20% | viability, T/C (second compound 0.1 µM, first compound 0.00949 µM): 84.3% | viability, T/C (second compound 0.1 µM, first compound 0.03 µM): 80.6% | viability, T/C (second compound 0.1 µM, first compound 0.0949 µM): 62.6% | viability, T/C (second compound 0.1 µM, first compound 0.3 µM): 49.3% | viability, T/C (second compound 0.1 µM, first compound 0.949 µM): 31.3% | viability, T/C (second compound 0.1 µM, first compound 3 µM): 20.3% | viability, T/C (second compound 0.316 µM, first compound 0.00949 µM): 80.7% | viability, T/C (second compound 0.316 µM, first compound 0.03 µM): 97.4% | viability, T/C (second compound 0.316 µM, first compound 0.0949 µM): 74.8% | viability, T/C (second compound 0.316 µM, first compound 0.3 µM): 53.3% | viability, T/C (second compound 0.316 µM, first compound 0.949 µM): 32.2% | viability, T/C (second compound 0.316 µM, first compound 3 µM): 19.8% | viability, T/C (second compound 1 µM, first compound 0.00949 µM): 73.3% | viability, T/C (second compound 1 µM, first compound 0.03 µM): 83.5% | viability, T/C (second compound 1 µM, first compound 0.0949 µM): 59.7% | viability, T/C (second compound 1 µM, first compound 0.3 µM): 48.2% | viability, T/C (second compound 1 µM, first compound 0.949 µM): 33.9% | viability, T/C (second compound 1 µM, first compound 3 µM): 17% | viability, T/C (second compound 3.16 µM, first compound 0.00949 µM): 85.3% | viability, T/C (second compound 3.16 µM, first compound 0.03 µM): 81.6% | viability, T/C (second compound 3.16 µM, first compound 0.0949 µM): 57% | viability, T/C (second compound 3.16 µM, first compound 0.3 µM): 44.3% | viability, T/C (second compound 3.16 µM, first compound 0.949 µM): 31.3% | viability, T/C (second compound 3.16 µM, first compound 3 µM): 13.3% | viability, T/C (second compound 10 µM, first compound 0.00949 µM): 78.3% | viability, T/C (second compound 10 µM, first compound 0.03 µM): 62.9% | viability, T/C (second compound 10 µM, first compound 0.0949 µM): 45.2% | viability, T/C (second compound 10 µM, first compound 0.3 µM): 41.7% | viability, T/C (second compound 10 µM, first compound 0.949 µM): 20.7% | viability, T/C (second compound 10 µM, first compound 3 µM): 10.4%
